Test results: publication PMC9643474, “The mycotoxin viriditoxin induces leukemia- and lymphoma-specific apoptosis by targeting mitochondrial metabolism” (Cell Death & Disease, 2022)

Molecular target: T1, complex I (Bos taurus, UniProt P03887+P17694+P42026)
T1 construct: gene NDUFS2; whole respiratory complex I (about 45 subunits) in isolated bovine heart mitochondria, kit assay
Test: MitoCheck complex activity assay, isolated bovine heart mitochondria
Format: biochemical
Details: 15 min, decreased complex I activity, binding site unknown

T1 sequence (P17694 34-463): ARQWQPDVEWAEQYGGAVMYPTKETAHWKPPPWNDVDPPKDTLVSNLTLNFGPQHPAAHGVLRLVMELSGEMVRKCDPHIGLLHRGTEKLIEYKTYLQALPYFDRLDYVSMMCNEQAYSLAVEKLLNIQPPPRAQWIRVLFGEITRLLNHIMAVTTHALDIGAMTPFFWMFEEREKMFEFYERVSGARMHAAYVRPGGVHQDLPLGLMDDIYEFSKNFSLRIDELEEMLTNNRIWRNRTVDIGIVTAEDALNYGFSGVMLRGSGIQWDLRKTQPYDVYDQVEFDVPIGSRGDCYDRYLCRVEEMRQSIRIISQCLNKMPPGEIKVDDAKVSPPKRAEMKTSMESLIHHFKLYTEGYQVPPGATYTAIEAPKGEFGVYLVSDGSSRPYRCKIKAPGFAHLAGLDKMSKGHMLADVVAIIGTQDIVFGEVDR
T1 sequence (P42026 38-216): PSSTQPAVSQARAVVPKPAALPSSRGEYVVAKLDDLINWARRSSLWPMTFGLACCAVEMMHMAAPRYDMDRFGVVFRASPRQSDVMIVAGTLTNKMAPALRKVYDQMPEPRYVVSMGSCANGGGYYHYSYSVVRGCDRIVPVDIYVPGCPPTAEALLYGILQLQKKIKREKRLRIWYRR
T1 sequence (P03887 whole entry): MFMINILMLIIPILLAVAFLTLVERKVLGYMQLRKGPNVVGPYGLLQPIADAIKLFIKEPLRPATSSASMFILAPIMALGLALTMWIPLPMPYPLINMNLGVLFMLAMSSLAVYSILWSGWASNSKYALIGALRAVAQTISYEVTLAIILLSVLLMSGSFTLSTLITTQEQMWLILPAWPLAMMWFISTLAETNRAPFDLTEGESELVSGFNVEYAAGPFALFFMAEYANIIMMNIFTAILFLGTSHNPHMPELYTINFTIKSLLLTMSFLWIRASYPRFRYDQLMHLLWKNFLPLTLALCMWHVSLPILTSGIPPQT

COC(=O)C[C@@H]1Cc2cc3c(-c4c(OC)cc(O)c5c(O)c6c(cc45)C[C@@H](CC(=O)OC)OC6=O)c(OC)cc(O)c3c(O)c2C(=O)O1 [viriditoxin]
activity, % of DMSO control at 10 μM: we could observe a decreased activity upon treatment with VDT for complex I
